Active and inactive are the calls of the source. No cut-off for these calls is given here.

For assay [1], the species on record is Homo sapiens. As to the kind of experiment: Binding affinity to duplex DNA1(AP)/DNA2(T) (unknown origin) assessed as APE1 catalyzed beta-elimination product formation by gel electrophoresis.
Assay [2] is filed under the species Homo sapiens. Description: Binding affinity to duplex DNA1(AP)/DNA2(C) (unknown origin) assessed as beta-elimination product formation at 10 uM pH 7 by gel electrophoresis.
Assay [3] is filed under the species Homo sapiens. Description: Binding affinity to duplex DNA1(AP)/DNA2(T) (unknown origin) assessed as beta-elimination product formation at 10 uM pH 7 by gel electrophoresis.
The species named for assay [4] is Homo sapiens. Description: Binding affinity to duplex DNA1(AP)/DNA2(G) (unknown origin) assessed as beta-elimination product formation at 10 uM pH 7 by gel electrophoresis.
The species entered for assay [5] is Homo sapiens. Description: Binding affinity to duplex DNA1(AP)/DNA2(A) (unknown origin) assessed as beta-elimination product formation at 10 uM pH 7 by gel electrophoresis.
The species entered for assay [6] is Homo sapiens. As to the kind of experiment: Binding affinity to duplex DNA1(AP)/DNA2(C) (unknown origin) assessed as beta-elimination product formation by HPLC analysis.
Assay [7] is filed under the species Homo sapiens. As to the kind of experiment: Binding affinity to duplex DNA1(AP)/DNA2(C) (unknown origin) assessed as APE1 catalyzed beta-elimination product formation by gel electrophoresis.
For assay [8], the species on record is Homo sapiens. As to the kind of experiment: Binding affinity to duplex DNA1(AP)/DNA2(C) (unknown origin) assessed as beta-elimination product formation after 1 hr at pH 8 by gel electrophoresis.
The species named for assay [9] is Homo sapiens. As to the kind of experiment: Binding affinity to duplex DNA1(AP)/DNA2(G) (unknown origin) assessed as APE1 catalyzed beta-elimination product formation by gel electrophoresis.
The species entered for assay [10] is Homo sapiens. As to the kind of experiment: Binding affinity to duplex DNA1(AP)/DNA2(A) (unknown origin) assessed as APE1 catalyzed beta-elimination product formation by gel electrophoresis.

Consider `NCCCNCCCNCCCn1cnc2c(N)ncnc21`, for which the result in the assay listed under Homo sapiens [1], in the assay listed under Homo sapiens [2], in the assay filed under Homo sapiens [3], in the assay filed under Homo sapiens [4] and in the assay filed under Homo sapiens [5] was Active.

`NCCCNCCCNCCCn1cnc2c(=O)[nH]c(N)nc21`: the outcome in the assay listed under Homo sapiens [6], in the assay listed under Homo sapiens [7], in the assay filed under Homo sapiens [8] and in the assay filed under Homo sapiens [2] was Active. For the same compound, the outcome in the assay listed under Homo sapiens [3], in the assay filed under Homo sapiens [4] and in the assay listed under Homo sapiens [5] was inactive.

Take `NCCCNCCCNCCCn1ccc(N)nc1=O`: the result in the assay listed under Homo sapiens [9] was inactive.

`NCCCNCCCN`: the outcome in the assay filed under Homo sapiens [7] was inactive.

As to `Cc1cn(CCCNCCCNCCCN)c(=O)[nH]c1=O`, the result in the assay filed under Homo sapiens [10] was inactive.

The values above are taken from ChEMBL document CHEMBL3751679, “DNA cleavage at the AP site via β-elimination mediated by the AP site-binding ligands” (Bioorg Med Chem, 2016).
